Legend:
Assay type in all cases: physicochemical
[1] = Compatibility of CMHPG fluid (SIROCCO) and TTPC, FIG. 1
Experimental: First, a treatment fluid containing 35 pptg (pounds per thousand gallons) carboxymethyl hydroxypropyl guar (CMHPG) fluid (SIROCCO, commercially available from Halliburton Energy Services, Inc. of Duncan, Okla.) with a pH of approximately 10.1 at 250° F. was tested and found to be compatible with TTPC up to about 250 ppm, as shown in FIG. 1. Not shown in […] is the starting viscosity of each of the tested fluids, which was as follows: 117.1 for the control, 140.1 for the fluid containing 125 ppm TTPC, 116.2 for the fluid containing 250 ppm TTPC, and 147.4 for the fluid containing 375 pp, TTPC.

[2] = Compatibility of HPG-based fluid (HYBOR H) and TTPC, FIG. 2
Text: Not shown in FIG. 2 is the starting viscosity of each of the tested fluids, which was as follows: 160.2 for the control, 172.9 for the fluid containing 125 ppm TTPC, 185.5 for the fluid containing 250 ppm TTPC, and 188.7 for the fluid containing 375 pp, TTPC.

[3] = Compatibility of guar-based fluid (HYBOR G) and TTPC, FIG. 3
Text: The starting viscosity of each of the tested fluids, was as follows: 138.1 for the control, 141.3 for the fluid containing 125 ppm TTPC, 125.7 for the fluid containing 250 ppm TTPC, and 128.8 for the fluid containing 375 pp, TTPC.

[4] = Compatibility of guar-based fluid (DELTA 140) and TTPC, FIG. 4
Text: The starting viscosity of each of the tested fluids, was as follows: 824.2 for the control, 263.7 for the fluid containing 125 ppm TTPC, 567.3 for the fluid containing 250 ppm TTPC, and 721.6 for the fluid containing 375 pp, TTPC.

[5] = Compatibility of guar-based fluid (DELTA 200) and TTPC, FIG. 5
Text: The starting viscosity of each of the tested fluids, was as follows: 77.0 for the control, 251.9 for the fluid containing 125 ppm TTPC, 59.7 for the fluid containing 250 ppm TTPC, and 96.8 for the fluid containing 375 pp, TTPC.

[6] = Compatibility of CMHPG-based fluid (pHaser Frac) and TTPC, FIG. 6
Text: The starting viscosity of each of the tested fluids, was as follows: 719.1 for the control, 1182.63 for the fluid containing 30 ppm TTPC, 1067.5 for the fluid containing 60 ppm TTPC, and 1015.8 for the fluid containing 125 pp, TTPC.

starting viscosity of fluid ([1]; 125 ppm TTPC): 140.1 | starting viscosity of fluid ([1]; 250 ppm TTPC): 116.2 | starting viscosity of fluid ([1]; 375 pp, TTPC): 147.4 | TTPC concentration up to which fluid is compatible ([1]; pH approximately 10.1, 250° F.): up to 250 ppm | TTPC concentration up to which fluid is compatible ([2]; 1 gptg GasPerm 1000, 4% KCl, 225° F.): up to 375 ppm | starting viscosity of fluid ([2]; 125 ppm TTPC): 172.9 | starting viscosity of fluid ([2]; 250 ppm TTPC): 185.5 | starting viscosity of fluid ([2]; 375 pp, TTPC): 188.7 | TTPC concentration up to which fluid is compatible ([3]; 1 gptg GasPerm 1000, 5 pptg sodium thiosulfate, 225° F.): up to 375 ppm | starting viscosity of fluid ([3]; 125 ppm TTPC): 141.3 | starting viscosity of fluid ([3]; 250 ppm TTPC): 125.7 | starting viscosity of fluid ([3]; 375 pp, TTPC): 128.8 | TTPC concentration up to which fluid is compatible ([4]; DELTA 140, 2 gptg tetramethylammonium chloride, 3 gptg BC-140, 140° F.): up to 375 ppm | starting viscosity of fluid ([4]; DELTA 140, 125 ppm TTPC): 263.7 | starting viscosity of fluid ([4]; DELTA 140, 250 ppm TTPC): 567.3 | starting viscosity of fluid ([4]; DELTA 140, 375 pp, TTPC): 721.6 | TTPC concentration up to which fluid is compatible ([5]; DELTA 200, 2 gptg Clayfix II, 2.5 gptg BC-200 UC, 204° F.): up to 375 ppm | starting viscosity of fluid ([5]; DELTA 200, 125 ppm TTPC): 251.9 | starting viscosity of fluid ([5]; DELTA 200, 250 ppm TTPC): 59.7 | starting viscosity of fluid ([5]; DELTA 200, 375 pp, TTPC): 96.8 | TTPC concentration up to which fluid is compatible ([6]; 2 gptg tetramethylammonium chloride, 1.1 gptg pH buffer, 1.4 gptg CL-37, 225° F.): up to 125 ppm | starting viscosity of fluid ([6]; 30 ppm TTPC): 1182.63 | starting viscosity of fluid ([6]; 60 ppm TTPC): 1067.5 | starting viscosity of fluid ([6]; 125 pp, TTPC): 1015.8
Structure (SMILES): CCCCCCCCCCCCCC[P+](CCCC)(CCCC)CCCC.[Cl-] [TTPC, tri-n-butyl tetradecyl phosphonium chloride]
